# Experimental data as given in patent publication US11117892B2, “Pyrrolo-pyridine derivative compound, method for preparing same, and pharmaceutical composition containing same as active ingredient for prevention or treatment of protein kinase-related diseases” (DAEGU-GYEONGBUK MEDICAL INNOVATION FOUNDATION, priority 2017, dated 2021).
# Columns and labels:
# Assay in all cases: scanMAX Kinase assay panel
# Format in all cases: binding
# [1] = biological target: PIP5K1A (Homo sapiens (Human), UniProt Q99755); conditions: read-out: % control
# Summary of the method: (§1)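 Each compound is run against the kinase on the scanMAX selectivity panel. Its signal is then expressed relative to a DMSO negative control (100%) and a positive control compound (0%).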
# [2] = biological target: TXK (Homo sapiens (Human), UniProt P42681); conditions: read-out: % control
# Summary of the method: as §1
# [3] = biological target: ACVR2A (Homo sapiens (Human), UniProt P27037); conditions: read-out: % control
# ACVR2A, sequence (P27037 20-513): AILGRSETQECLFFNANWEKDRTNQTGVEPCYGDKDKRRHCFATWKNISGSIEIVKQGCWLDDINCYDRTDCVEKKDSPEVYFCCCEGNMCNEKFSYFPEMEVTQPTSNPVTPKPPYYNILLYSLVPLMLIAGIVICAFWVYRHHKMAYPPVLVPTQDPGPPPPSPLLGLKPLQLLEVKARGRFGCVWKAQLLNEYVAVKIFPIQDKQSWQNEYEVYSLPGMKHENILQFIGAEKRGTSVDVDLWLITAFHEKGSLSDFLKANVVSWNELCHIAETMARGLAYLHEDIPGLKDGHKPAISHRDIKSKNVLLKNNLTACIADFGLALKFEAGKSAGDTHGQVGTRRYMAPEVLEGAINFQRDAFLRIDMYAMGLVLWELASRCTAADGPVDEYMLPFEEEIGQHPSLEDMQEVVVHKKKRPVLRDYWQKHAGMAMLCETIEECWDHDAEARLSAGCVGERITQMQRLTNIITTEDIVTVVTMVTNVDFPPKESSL
# Summary of the method: as §1
# [4] = biological target: LRRK2 (Homo sapiens (Human), UniProt Q5S007); conditions: read-out: % control
# Summary of the method: as §1
# [5] = biological target: NIK (Homo sapiens (Human), UniProt Q99558); conditions: read-out: % control
# NIK, sequence (Q99558 whole entry): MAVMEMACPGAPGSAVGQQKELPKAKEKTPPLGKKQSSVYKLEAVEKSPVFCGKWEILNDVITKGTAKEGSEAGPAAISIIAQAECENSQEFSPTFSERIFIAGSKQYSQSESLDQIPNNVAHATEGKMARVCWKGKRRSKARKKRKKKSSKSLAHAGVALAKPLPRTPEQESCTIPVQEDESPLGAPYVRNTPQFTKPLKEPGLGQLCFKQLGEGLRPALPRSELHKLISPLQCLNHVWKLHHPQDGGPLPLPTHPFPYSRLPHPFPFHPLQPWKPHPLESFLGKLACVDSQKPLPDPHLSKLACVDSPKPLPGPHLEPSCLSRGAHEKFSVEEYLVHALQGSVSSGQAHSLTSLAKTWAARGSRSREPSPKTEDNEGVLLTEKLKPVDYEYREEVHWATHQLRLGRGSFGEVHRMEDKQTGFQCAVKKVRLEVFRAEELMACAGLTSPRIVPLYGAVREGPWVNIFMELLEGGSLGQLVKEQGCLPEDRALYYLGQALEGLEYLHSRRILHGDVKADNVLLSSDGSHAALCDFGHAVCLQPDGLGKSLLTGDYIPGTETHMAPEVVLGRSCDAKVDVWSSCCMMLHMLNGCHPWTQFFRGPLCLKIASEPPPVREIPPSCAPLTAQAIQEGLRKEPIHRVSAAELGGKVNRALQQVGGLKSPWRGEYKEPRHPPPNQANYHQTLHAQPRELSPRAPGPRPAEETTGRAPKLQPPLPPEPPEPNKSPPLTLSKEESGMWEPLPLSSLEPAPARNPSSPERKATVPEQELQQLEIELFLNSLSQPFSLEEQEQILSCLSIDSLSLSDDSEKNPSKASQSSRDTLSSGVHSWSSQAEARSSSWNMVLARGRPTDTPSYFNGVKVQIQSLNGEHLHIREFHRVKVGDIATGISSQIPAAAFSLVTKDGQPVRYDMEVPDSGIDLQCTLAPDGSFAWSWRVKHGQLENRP
# Summary of the method: as §1
# [6] = biological target: SNRK (Homo sapiens (Human), UniProt Q9NRH2); conditions: read-out: % control
# Summary of the method: as §1
# [7] = biological target: AXL (Homo sapiens (Human), UniProt P30530); conditions: read-out: % control
# Summary of the method: as §1
# [8] = biological target: CDC2L1 (Homo sapiens (Human), UniProt P21127); conditions: read-out: % control
# Summary of the method: as §1
# [9] = biological target: TLK1 (Homo sapiens (Human), UniProt Q9UKI8); conditions: read-out: % control
# Summary of the method: as §1
# [10] = biological target: RSK1(Kin.Dom.1-N-terminal) (Homo sapiens (Human), UniProt Q15418); conditions: read-out: % control
# Summary of the method: as §1
# [11] = biological target: RIOK3 (Homo sapiens (Human), UniProt O14730); conditions: read-out: % control
# RIOK3, sequence (O14730 whole entry): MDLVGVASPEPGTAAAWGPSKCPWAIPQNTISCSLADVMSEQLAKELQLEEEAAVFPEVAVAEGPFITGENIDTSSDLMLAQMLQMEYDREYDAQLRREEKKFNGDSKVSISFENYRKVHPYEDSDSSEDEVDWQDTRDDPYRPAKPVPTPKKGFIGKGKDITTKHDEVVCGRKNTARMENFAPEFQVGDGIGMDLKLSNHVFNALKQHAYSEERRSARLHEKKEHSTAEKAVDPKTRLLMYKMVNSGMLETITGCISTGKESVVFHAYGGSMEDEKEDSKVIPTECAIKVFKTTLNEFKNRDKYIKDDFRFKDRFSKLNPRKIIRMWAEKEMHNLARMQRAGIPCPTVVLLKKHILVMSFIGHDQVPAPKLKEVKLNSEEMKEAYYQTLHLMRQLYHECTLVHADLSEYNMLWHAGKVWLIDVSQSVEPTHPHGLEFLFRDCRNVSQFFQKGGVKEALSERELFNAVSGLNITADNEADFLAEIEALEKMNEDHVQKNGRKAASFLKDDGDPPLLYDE
# Summary of the method: as §1
# [12] = biological target: EGFR(L858R, T790M) (Homo sapiens (Human), UniProt P00533, L858R/T790M); conditions: read-out: % control
# Summary of the method: as §1
# [13] = biological target: BRAF(V600E) (Homo sapiens (Human), UniProt P15056, V600E); conditions: read-out: % control
# Summary of the method: as §1
# [14] = biological target: ASK2 (Homo sapiens (Human), UniProt O95382); conditions: read-out: % control
# Summary of the method: as §1
# [15] = biological target: MEK3 (Homo sapiens (Human), UniProt P46734); conditions: read-out: % control
# Summary of the method: as §1
# [16] = biological target: HIPK1 (Homo sapiens (Human), UniProt Q86Z02); conditions: read-out: % control
# Summary of the method: as §1
# [17] = biological target: MEK4 (Homo sapiens (Human), UniProt P45985); conditions: read-out: % control
# MEK4, sequence (P45985 whole entry): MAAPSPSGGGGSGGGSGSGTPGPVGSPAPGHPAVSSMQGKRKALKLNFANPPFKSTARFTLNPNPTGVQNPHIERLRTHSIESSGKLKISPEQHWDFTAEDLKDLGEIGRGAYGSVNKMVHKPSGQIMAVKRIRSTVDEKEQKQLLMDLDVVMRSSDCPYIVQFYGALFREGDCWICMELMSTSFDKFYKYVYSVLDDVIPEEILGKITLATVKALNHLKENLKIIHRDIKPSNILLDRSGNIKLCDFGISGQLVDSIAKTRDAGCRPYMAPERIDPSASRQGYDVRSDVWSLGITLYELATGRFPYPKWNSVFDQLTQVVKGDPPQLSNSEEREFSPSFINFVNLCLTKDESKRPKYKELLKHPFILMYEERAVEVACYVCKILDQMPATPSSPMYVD
# Summary of the method: as §1
# [18] = biological target: WNK4 (Homo sapiens (Human), UniProt Q96J92); conditions: read-out: % control
# WNK4, sequence (Q96J92 whole entry): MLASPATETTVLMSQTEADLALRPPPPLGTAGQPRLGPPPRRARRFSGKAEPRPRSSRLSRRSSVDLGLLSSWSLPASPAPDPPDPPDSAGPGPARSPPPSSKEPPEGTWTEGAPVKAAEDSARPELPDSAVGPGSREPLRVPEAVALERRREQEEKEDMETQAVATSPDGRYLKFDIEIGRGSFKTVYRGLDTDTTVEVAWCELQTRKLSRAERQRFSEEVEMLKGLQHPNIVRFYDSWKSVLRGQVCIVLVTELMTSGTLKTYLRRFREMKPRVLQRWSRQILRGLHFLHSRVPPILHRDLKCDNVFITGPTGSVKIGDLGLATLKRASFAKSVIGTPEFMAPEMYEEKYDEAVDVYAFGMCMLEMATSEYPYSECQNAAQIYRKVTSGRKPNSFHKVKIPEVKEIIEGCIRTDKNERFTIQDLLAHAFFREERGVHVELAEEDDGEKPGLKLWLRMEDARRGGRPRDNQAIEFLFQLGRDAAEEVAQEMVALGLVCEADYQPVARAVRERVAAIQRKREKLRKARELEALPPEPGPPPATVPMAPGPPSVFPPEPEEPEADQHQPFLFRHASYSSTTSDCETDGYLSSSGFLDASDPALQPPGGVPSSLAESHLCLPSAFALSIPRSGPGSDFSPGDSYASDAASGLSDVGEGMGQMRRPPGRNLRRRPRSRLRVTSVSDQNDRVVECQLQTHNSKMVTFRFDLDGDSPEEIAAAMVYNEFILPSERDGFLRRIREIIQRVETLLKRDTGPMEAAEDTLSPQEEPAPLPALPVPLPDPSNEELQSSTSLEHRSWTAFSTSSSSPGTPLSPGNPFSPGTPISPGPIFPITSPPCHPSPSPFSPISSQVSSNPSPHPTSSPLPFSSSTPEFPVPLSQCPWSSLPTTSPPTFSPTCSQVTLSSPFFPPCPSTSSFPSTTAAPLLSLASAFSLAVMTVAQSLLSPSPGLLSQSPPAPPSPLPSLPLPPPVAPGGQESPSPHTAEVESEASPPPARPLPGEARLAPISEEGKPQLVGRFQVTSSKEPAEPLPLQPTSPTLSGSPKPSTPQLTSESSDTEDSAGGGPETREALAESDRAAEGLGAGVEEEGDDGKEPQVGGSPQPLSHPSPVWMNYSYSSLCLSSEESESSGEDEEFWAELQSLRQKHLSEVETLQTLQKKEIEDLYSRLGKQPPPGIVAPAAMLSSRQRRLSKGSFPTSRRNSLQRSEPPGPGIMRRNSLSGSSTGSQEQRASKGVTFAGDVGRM
# Summary of the method: as §1
# [19] = biological target: EGFR(E746-A750del) (Homo sapiens (Human), UniProt P00533, DEL746-750); conditions: read-out: % control
# Summary of the method: as §1
# [20] = biological target: SGK (Homo sapiens (Human), UniProt O00141); conditions: read-out: % control
# Summary of the method: as §1
# [21] = biological target: TYRO3 (Homo sapiens (Human), UniProt Q06418); conditions: read-out: % control
# Summary of the method: as §1
# [22] = biological target: ERBB4 (Homo sapiens (Human), UniProt Q15303); conditions: read-out: % control
# Summary of the method: as §1
# [23] = biological target: TRKC (Homo sapiens (Human), UniProt Q16288); conditions: read-out: % control
# TRKC, sequence (Q16288 32-839): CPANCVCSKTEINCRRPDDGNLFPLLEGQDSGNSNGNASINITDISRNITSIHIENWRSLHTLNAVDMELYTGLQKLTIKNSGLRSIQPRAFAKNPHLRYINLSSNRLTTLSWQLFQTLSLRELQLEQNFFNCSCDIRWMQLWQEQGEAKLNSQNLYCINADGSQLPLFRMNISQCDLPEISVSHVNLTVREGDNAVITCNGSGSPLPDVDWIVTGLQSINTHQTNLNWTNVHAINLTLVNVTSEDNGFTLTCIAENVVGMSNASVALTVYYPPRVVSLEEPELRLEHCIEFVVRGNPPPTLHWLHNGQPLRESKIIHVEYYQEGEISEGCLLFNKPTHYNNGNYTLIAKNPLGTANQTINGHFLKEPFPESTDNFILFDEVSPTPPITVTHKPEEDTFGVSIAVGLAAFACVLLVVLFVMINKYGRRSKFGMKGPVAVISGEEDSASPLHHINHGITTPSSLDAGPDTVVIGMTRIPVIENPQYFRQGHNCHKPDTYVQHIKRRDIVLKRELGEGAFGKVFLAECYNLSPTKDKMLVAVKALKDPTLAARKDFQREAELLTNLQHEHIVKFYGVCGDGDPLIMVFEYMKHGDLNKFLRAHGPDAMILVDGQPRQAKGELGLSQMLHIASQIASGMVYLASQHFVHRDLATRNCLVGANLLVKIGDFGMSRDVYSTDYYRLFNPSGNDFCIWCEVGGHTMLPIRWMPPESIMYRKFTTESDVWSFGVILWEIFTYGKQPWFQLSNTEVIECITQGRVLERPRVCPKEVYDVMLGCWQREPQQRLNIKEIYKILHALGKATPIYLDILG
# Summary of the method: as §1
# [24] = biological target: AKT3 (Homo sapiens (Human), UniProt Q9Y243); conditions: read-out: % control
# Summary of the method: as §1
# [25] = biological target: RSK3(Kin.Dom.2-C-terminal) (Homo sapiens (Human), UniProt Q15349); conditions: read-out: % control
# Summary of the method: as §1
# [26] = biological target: MRCKB (Homo sapiens (Human), UniProt Q9Y5S2); conditions: read-out: % control
# Summary of the method: as §1
# [27] = biological target: MKNK2 (Homo sapiens (Human), UniProt Q9HBH9); conditions: read-out: % control
# MKNK2, sequence (Q9HBH9 whole entry): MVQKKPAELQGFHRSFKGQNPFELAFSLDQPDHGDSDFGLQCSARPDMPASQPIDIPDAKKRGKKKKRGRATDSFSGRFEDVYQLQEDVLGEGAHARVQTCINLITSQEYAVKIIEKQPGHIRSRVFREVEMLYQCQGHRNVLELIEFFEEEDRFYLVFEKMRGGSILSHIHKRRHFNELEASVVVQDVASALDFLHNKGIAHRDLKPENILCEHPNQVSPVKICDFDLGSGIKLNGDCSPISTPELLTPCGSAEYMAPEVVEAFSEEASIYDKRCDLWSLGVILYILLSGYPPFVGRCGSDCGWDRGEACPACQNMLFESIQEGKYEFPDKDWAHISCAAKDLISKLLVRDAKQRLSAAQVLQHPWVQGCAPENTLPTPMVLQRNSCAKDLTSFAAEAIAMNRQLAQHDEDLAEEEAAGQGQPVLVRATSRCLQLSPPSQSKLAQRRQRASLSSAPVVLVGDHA
# Summary of the method: as §1
# [28] = test system: FLT3(ITD, F691L); conditions: 1 uM
# Summary of the method: as §1
# [29] = biological target: ABL1(T315I)-phosphorylated (Homo sapiens (Human), UniProt P00519, T315I); conditions: read-out: % control
# Summary of the method: as §1
# [30] = biological target: PAK1 (Homo sapiens (Human), UniProt Q13153); conditions: read-out: % control
# Summary of the method: as §1
# [31] = biological target: FER (Homo sapiens (Human), UniProt P16591); conditions: read-out: % control
# Summary of the method: as §1
# [32] = biological target: HASPIN (Homo sapiens (Human), UniProt Q8TF76); conditions: read-out: % control
# Summary of the method: as §1
# [33] = biological target: CDK8 (Homo sapiens (Human), UniProt P49336); conditions: read-out: % control
# Summary of the method: as §1
# [34] = biological target: RIOK1 (Homo sapiens (Human), UniProt Q9BRS2); conditions: read-out: % control
# Summary of the method: as §1
# [35] = biological target: TNIK (Homo sapiens (Human), UniProt Q9UKE5); conditions: read-out: % control
# Summary of the method: as §1
SMILES,remaining binding at 1 µM [1] [%],remaining binding at 1 µM [2] [%],remaining binding at 1 µM [3] [%],remaining binding at 1 µM [4] [%],remaining binding at 1 µM [5] [%],remaining binding at 1 µM [6] [%],remaining binding at 1 µM [7] [%],remaining binding at 1 µM [8] [%],remaining binding at 1 µM [9] [%],remaining binding at 1 µM [10] [%],remaining binding at 1 µM [11] [%],remaining binding at 1 µM [12] [%],remaining binding at 1 µM [13] [%],remaining binding at 1 µM [14] [%],remaining binding at 1 µM [15] [%],remaining binding at 1 µM [16] [%],remaining binding at 1 µM [17] [%],remaining binding at 1 µM [18] [%],remaining binding at 1 µM [19] [%],remaining binding at 1 µM [20] [%],also measured
"CCNc1cc(Nc2ccc(C(=O)N3CCC(N4CCOCC4)CC3)cc2OC)nc2[nH]cc(C#N)c12 [Example 18, 4-(ethylamino)-6-((2-methoxy-4-(4-morpholinopiperidine-1-carbonyl)phenyl)amino)-1H-pyrrolo[2,3-b]pyridine-3-carbonitrile]",100,99,100,1.1,25,100,98,100,100,73,98,81,87,82,4.3,63,0,79,83,64,remaining binding at 1 µM [21]: 80%; remaining binding at 1 µM [22]: 85%; remaining binding at 1 µM [23]: 93%; remaining binding at 1 µM [24]: 96%; remaining binding at 1 µM [25]: 12%; remaining binding at 1 µM [26]: 92%; remaining binding at 1 µM [27]: 60%; % control [28]: 46%; remaining binding at 1 µM [29]: 100%; remaining binding at 1 µM [30]: 92%; remaining binding at 1 µM [31]: 62%; remaining binding at 1 µM [32]: 7.6%; remaining binding at 1 µM [33]: 100%; remaining binding at 1 µM [34]: 94%; remaining binding at 1 µM [35]: 89%
"CCNc1cc(Nc2ccc(C(=O)N3CCC(N4CCOCC4)CC3)cc2OC)nc2[nH]cc(C(F)(F)F)c12 [Example 57, (4-((4-(ethylamino)-3-(trifluoromethyl)-1H-pyrrolo[2,3-b]pyridin-6-yl)amino)-3-methoxyphenyl) (4-morpholinopiperidin-1-yl)methanone]",88,85,99,48,82,100,100,90,73,76,96,73,94,92,81,54,98,100,98,100,remaining binding at 1 µM [21]: 96%; remaining binding at 1 µM [22]: 82%; remaining binding at 1 µM [23]: 100%; remaining binding at 1 µM [24]: 96%; remaining binding at 1 µM [25]: 82%; remaining binding at 1 µM [26]: 100%; remaining binding at 1 µM [27]: 95%; % control [28]: 84%; remaining binding at 1 µM [29]: 96%; remaining binding at 1 µM [30]: 73%; remaining binding at 1 µM [31]: 67%; remaining binding at 1 µM [32]: 70%; remaining binding at 1 µM [33]: 90%; remaining binding at 1 µM [34]: 94%; remaining binding at 1 µM [35]: 94%
